Like-named read-outs stand apart in the source and are kept apart here.
Legend:
Format in all cases: in vivo
[1] = tested on: Ctenocephatides felis, adult cat fleas; assay: Contact activity against adult cat fleas, coated glass vial assay
Description: Evaluation of the Efficacy of Test Compounds Against Adult Cat Fleas
(§1) The contact activity of a test compound against Ctenocephatides felis, adult cat fleas, is evaluated in a coated, glass vial assay. In this evaluation, a solution of test compound in acetone is allowed to dry on the interior surface of a 20 mL vial. Ten unfed adult cat fleas are added to the treated vial and mortality is assessed periodically for up to 48 h. All treatments are replicated 2 times. The data are averaged.

[2] = tested on: newly emerged larvae of Lucilia sericata, blowfly; assay: Efficacy against blowfly larvae, treated paper/serum bioassay; details: blowfly larvae; for mortality at 0.2 ppm / mortality at 2 ppm / mortality at 20 ppm: Lucilia sericata
Description: Evaluation of Efficacy of Test Compounds Against Blowfly Larvae
The efficacy of a test compound against newly emerged larvae of Lucilia sericata, blowfly, is evaluated using a treated paper/serum bioassay. In this evaluation, a solution of test compound in acetone is applied to a filter paper disc and the disc is allowed to dry. Bovine serum and about 20 newly emerged blowfly larvae are added to the treated paper disc and the mortality is assessed at 24 h and 48 h. The data are averaged.

[3] = tested on: Rhipacephalus sanguineus, adult ticks; assay: Contact activity against adult ticks, coated glass vial assay
Description: Evaluation of the Efficacy of Test Compounds Against Adult Ticks
as §1, with “Rhipacephalus sanguineus,” for “Ctenocephatides felis,”, “ticks,” for “cat fleas,”, “coated” for “coated,”, “Five” for “Ten”, “ticks” for “cat fleas”

[4] = Conc. 0.2 ppm, 24 h, read-out: % Mortality 24 h
[5] = Conc. 0.2 ppm, 48 h, read-out: % Mortality 48 h
[6] = Conc. 2.0 ppm, 24 h, read-out: % Mortality 24 h
[7] = Conc. 2.0 ppm, 48 h, read-out: % Mortality 48 h
[8] = Conc. 20.0 ppm, 24 h, read-out: % Mortality 24 h
[9] = Conc. 20.0 ppm, 48 h, read-out: % Mortality 48 h

| SMILES | % Mortality 4 h ([1]; Conc. 2 ug/cm2, 4 h) | % Mortality 24 h ([1]; Conc. 2 ug/cm2, 24 h) | % Mortality 24 h ([2]; Conc. 2.0 ppm, 24 h) | % Mortality 48 h ([2]; Conc. 2.0 ppm, 48 h) | % Mortality 24 h ([2]; Conc. 20.0 ppm, 24 h) | % Mortality 48 h ([2]; Conc. 20.0 ppm, 48 h) | other results |
| --- | --- | --- | --- | --- | --- | --- | --- |
| CCCOC=Nc1c(C#N)c(C2(C)CC2(Cl)Cl)nn1-c1c(Cl)cc(C(F)(F)F)cc1Cl (racemic) [Example 39] | 0% | 70% | 70% | 70% | 100% | 100% | % Mortality 24 h ([2]; Conc. 0.2 ppm, 24 h): 0%; % Mortality 48 h ([2]; Conc. 0.2 ppm, 48 h): 0% |
| CCOC=Nc1c(C#N)c(C2(C)CC2(Cl)Cl)nn1-c1c(Cl)cc(C(F)(F)F)cc1Cl (racemic) [Example 40] | 0% | 100% | 0% | 0% | 100% | 100% |  |
| CC1(c2nn(-c3c(Cl)cc(C(F)(F)F)cc3Cl)c(Cl)c2C#N)CC1(Cl)Cl (centres unmarked) [Example 4, 5-Chloro-3-(2,2-dichloro-1-methylcyclopropyl)-1-[2,6-dichloro-4-(trifluoromethyl)phenyl]-1H-pyrazole-4-carbonitrile] | 100% | 100% |  |  |  |  | % Mortality 4 h ([1]; Conc. 0.002 ug/cm2, 4 h): 20%; % Mortality 24 h ([1]; Conc. 0.002 ug/cm2, 24 h): 100%; % Mortality 4 h ([1]; Conc. 0.2 ug/cm2, 4 h): 60%; % Mortality 24 h ([1]; Conc. 0.2 ug/cm2, 24 h): 100%; % Mortality 4 h ([3]; Conc. 0.78 ug/cm2, 4 h): 60%; % Mortality 24 h ([3]; Conc. 0.78 ug/cm2, 24 h): 100%; % Mortality 4 h ([3]; Conc. 7.80 ug/cm2, 4 h): 60%; % Mortality 24 h ([3]; Conc. 7.80 ug/cm2, 24 h): 100%; mortality at 0.2 ppm [2, 4]: 100%; mortality at 0.2 ppm [2, 5]: 100%; mortality at 2 ppm [2, 6]: 100%; mortality at 2 ppm [2, 7]: 100%; mortality at 20 ppm [2, 8]: 100%; mortality at 20 ppm [2, 9]: 100% |
| CC1(c2nn(-c3c(Cl)cc(C(F)(F)F)cc3Cl)cc2C#N)CC1(Cl)Cl (centres unmarked) [Example 5] | 0% | 33% |  |  |  |  |  |
| CC1(c2nn(-c3c(Cl)cc(Cl)cc3Cl)cc2C#N)CC1(Cl)Cl (centres unmarked) [Example 6] |  |  |  |  | 70% | 70% | % Mortality 24 h ([2]; Conc. 1.0 ppm, 24 h): 10%; % Mortality 48 h ([2]; Conc. 1.0 ppm, 48 h): 10% |
| CC1C(Cl)(Cl)C1(C)c1nn(-c2c(Cl)cc(C(F)(F)F)cc2Cl)cc1C#N (centres unmarked) [Example 7] | 0% | 100% | 0% | 0% | 77% | 90% | % Mortality 4 h ([3]; Conc. 0.78 ug/cm2, 4 h): 0%; % Mortality 24 h ([3]; Conc. 0.78 ug/cm2, 24 h): 10%; % Mortality 4 h ([3]; Conc. 7.80 ug/cm2, 4 h): 10%; % Mortality 24 h ([3]; Conc. 7.80 ug/cm2, 24 h): 80% |
| COc1ccc(C2(c3nn(-c4c(Cl)cc(C(F)(F)F)cc4Cl)cc3C#N)CC2)cc1 [Example 9] |  |  |  |  | 0% | 0% |  |
| N#Cc1cn(-c2c(Cl)cc(C(F)(F)F)cc2Cl)nc1C1(c2ccc(Cl)cc2)CC1 [Example 10] |  |  |  |  | 0% | 0% |  |
| CC1(c2nn(-c3c(Cl)cc(Cl)cc3Cl)cc2C#N)CC1 [Example 11] |  |  |  |  | 0% | 0% |  |
| COc1ccc(C2(c3nn(-c4c(Cl)cc(Cl)cc4Cl)cc3C#N)CC2)cc1 [Example 13] |  |  |  |  | 0% | 0% |  |
| CC1(c2nn(-c3c(Cl)cc(C(F)(F)F)cc3Cl)cc2C#N)CC1(Br)Br (centres unmarked) [Example 14] | 10% | 100% | 100% | 100% | 95% | 100% | % Mortality 4 h ([3]; Conc. 0.78 ug/cm2, 4 h): 40%; % Mortality 24 h ([3]; Conc. 0.78 ug/cm2, 24 h): 40%; % Mortality 4 h ([3]; Conc. 7.80 ug/cm2, 4 h): 50%; % Mortality 24 h ([3]; Conc. 7.80 ug/cm2, 24 h): 80%; % Mortality 24 h ([2]; Conc. 0.2 ppm, 24 h): 50%; % Mortality 48 h ([2]; Conc. 0.2 ppm, 48 h): 50% |
| CC1(c2nn(-c3c(Cl)cc(Cl)cc3Cl)cc2C#N)CC1(Br)Br (centres unmarked) [Example 15] | 10% | 80% | 95% | 95% | 90% | 90% | % Mortality 24 h ([2]; Conc. 0.2 ppm, 24 h): 0%; % Mortality 48 h ([2]; Conc. 0.2 ppm, 48 h): 0% |
| N#Cc1cn(-c2c(Cl)cc(C(F)(F)F)cc2Cl)nc1C1(c2ccc(Cl)cc2Cl)CC1 [Example 17] |  |  |  |  | 0% | 0% |  |
| N#Cc1cn(-c2c(Cl)cc(Cl)cc2Cl)nc1C1(c2ccc(Cl)cc2Cl)CC1 [Example 18] |  |  |  |  | 0% | 0% |  |
| CC1(c2nn(-c3c(Cl)cc(C(F)(F)F)cc3Cl)c(N)c2C#N)CC1(Cl)Cl (centres unmarked) [Example 19, 5-Amino-3-(2,2-dichloro-1-methylcyclopropyl)-1-[2,6-dichloro-4-(trifluoromethyl)phenyl]-1H-pyrazole-4-carbonitrile] | 0% | 10% |  |  |  |  | % Mortality 4 h ([3]; Conc. 0.78 ug/cm2, 4 h): 0%; % Mortality 24 h ([3]; Conc. 0.78 ug/cm2, 24 h): 20%; % Mortality 4 h ([3]; Conc. 7.80 ug/cm2, 4 h): 40%; % Mortality 24 h ([3]; Conc. 7.80 ug/cm2, 24 h): 70%; mortality at 0.2 ppm [2, 4]: 0%; mortality at 0.2 ppm [2, 5]: 0%; mortality at 2 ppm [2, 6]: 100%; mortality at 2 ppm [2, 7]: 100%; mortality at 20 ppm [2, 8]: 75%; mortality at 20 ppm [2, 9]: 95% |
| N#Cc1c(C2CC2)nn(-c2c(Cl)cc(C(F)(F)F)cc2Cl)c1N [Example 24] |  |  |  |  |  |  | % Mortality 24 h ([2]; Conc. 10.0 ppm, 24 h): 0%; % Mortality 48 h ([2]; Conc. 10.0 ppm, 48 h): 0% |
| CC1(c2nn(-c3c(Cl)cc(Cl)cc3Cl)c(N)c2C#N)CC1(Cl)Cl (centres unmarked) [Example 25] |  |  |  |  | 5% | 5% | % Mortality 24 h ([2]; Conc. 10.0 ppm, 24 h): 0%; % Mortality 48 h ([2]; Conc. 10.0 ppm, 48 h): 0% |
| N#Cc1c(C2CC2)nn(-c2c(Cl)cc(C(F)(F)F)cc2Cl)c1Cl [Example 26] | 100% | 100% | 0% | 0% | 97% | 97% | % Mortality 24 h ([2]; Conc. 10.0 ppm, 24 h): 0%; % Mortality 48 h ([2]; Conc. 10.0 ppm, 48 h): 50% |
| CC1(c2nn(-c3c(Cl)cc(Cl)cc3Cl)c(Cl)c2C#N)CC1(Cl)Cl (centres unmarked) [Example 27] | 10% | 100% | 100% | 100% | 100% | 100% | % Mortality 24 h ([2]; Conc. 0.2 ppm, 24 h): 0%; % Mortality 48 h ([2]; Conc. 0.2 ppm, 48 h): 0% |
| CC1(c2nn(-c3c(Cl)cc(Cl)cc3Cl)c(Br)c2C#N)CC1(Cl)Cl (centres unmarked) [Example 28] | 0% | 10% | 95% | 100% | 100% | 100% | % Mortality 24 h ([2]; Conc. 0.2 ppm, 24 h): 0%; % Mortality 48 h ([2]; Conc. 0.2 ppm, 48 h): 0% |
| CC1(c2nn(-c3c(Cl)cc(C(F)(F)F)cc3Cl)c([N+](=O)[O-])c2C#N)CC1(Cl)Cl (centres unmarked) [Example 30] | 0% | 100% |  |  | 20% | 20% | % Mortality 24 h ([2]; Conc. 10.0 ppm, 24 h): 10%; % Mortality 48 h ([2]; Conc. 10.0 ppm, 48 h): 50% |
| CCN(CC)c1c(C#N)c(C2(C)CC2(Cl)Cl)nn1-c1c(Cl)cc(C(F)(F)F)cc1Cl (centres unmarked) [Example 33] | 20% | 100% | 90% | 90% | 100% | 100% | % Mortality 24 h ([2]; Conc. 0.2 ppm, 24 h): 0%; % Mortality 48 h ([2]; Conc. 0.2 ppm, 48 h): 0% |
| CC(C)(C)C(=O)Nc1c(C#N)c(C2(C)CC2(Cl)Cl)nn1-c1c(Cl)cc(C(F)(F)F)cc1Cl (centres unmarked) [Example 34] |  |  |  |  | 0% | 0% |  |
| CC1(c2nn(-c3c(Cl)cc(C(F)(F)F)cc3Cl)c(N(C(=O)C3CC3)C(=O)C3CC3)c2C#N)CC1(Cl)Cl (centres unmarked) [Example 35] |  |  |  |  | 0% | 0% |  |
| CC1(c2nn(-c3c(Cl)cc(C(F)(F)F)cc3Cl)c(NC(=O)C3CC3)c2C#N)CC1(Cl)Cl (centres unmarked) [Example 36] |  |  |  |  | 10% | 10% | % Mortality 24 h ([2]; Conc. 10.0 ppm, 24 h): 0% |
| COC=Nc1c(C#N)c(C2(C)CC2(Cl)Cl)nn1-c1c(Cl)cc(C(F)(F)F)cc1Cl (centres unmarked) [Example 37] | 10% | 100% | 0% | 0% | 100% | 100% |  |
| CN(C)C=Nc1c(C#N)c(C2(C)CC2(Cl)Cl)nn1-c1c(Cl)cc(C(F)(F)F)cc1Cl (centres unmarked) [Example 38] |  |  |  |  | 0% | 0% |  |
